The source of these data is patent US20090099218A1, “SYNTHESIS OF NOVEL TUBULIN POLYMERIZATION INHIBITORS: BENZOYLPHENYLUREA (BPU) SULFUR ANALOGS” (priority 2007, published 2009).

One assay relates to tubulin. Put plainly: Inhibition of [3H]colchicine binding. Conditions: Tubulin 1 μM; [3H]colchicine and inhibitor at 5 μM.
For a further assay, the system named is MCF-7 cells. Put plainly: Apoptosis of MCF-7 cells. The assay is classed as cell-based. Particulars: 48 hours.
The test system of assay [1] is pancreas cancer xenografts. Put plainly: In vivo growth inhibition of patient-derived pancreas cancer xenografts. On the set-up: species or system athymic nude mice. Conditions: for average growth after 28 days of treatment (T/C): individual patient xenograft cases; for efficacy in case 194: case with the greatest expression of MAPT; for slopes of treated versus control group, all nine cases: integrated analysis of nine treatment groups; for efficacy in case 215: low MAPT-expressing case, docetaxel 30 mg/kg i.p. once a week for 2 weeks. The protocol:
Six-week-old female athymic nude mice (Harlan) were used. The research protocol was approved by the Johns Hopkins University Animal Care and Use Committee, and animals were maintained in accordance to guidelines of the American Association of Laboratory Animal Care. Surgical non-diagnostic specimens from patients who had undergone surgery at the Johns Hopkins Hospital were implanted s.c. in one to two mice for each patient, with two small pieces per mouse (F1 generation). Tumors were grown to 1.5 cm^3 and then harvested, divided into small ˜3×3×3 mm pieces, and transplanted to another five mice, with two tumors per mouse (F2 generation). After a second growth passage, tumors were excised and propagated to cohorts of ≧20 mice. These groups constituted the F3, or treatment cohort. Tumors from this third mouse-to-mouse passage were allowed to grow to ˜200 mm3, at which time mice were randomized into three treatment groups, with five to six mice (10 evaluable tumors) in each group: control (vehicle), 6n (50 mg/kg i.p. twice per week), and 7d (50 mg/kg i.p. twice per week). Docetaxel treatment was given to selected groups at a dose of 30 mg/kg i.p. once a week for 2 weeks. Mice were monitored daily for signs of toxicity and were weighed thrice per week. Tumor size was evaluated twice per week by caliper measurements using the following formula: tumor volume=[length×width^2]/2. Relative tumor growth inhibition was calculated by relative tumor growth of treated mice divided by relative tumor growth of control mice from the onset of therapy (T/C).
To assess the treatment effect, a hierarchical linear regression model was used with random intercepts and fixed slopes. Based on the results of exploratory plots, the assumption of fixed effects for slopes seemed reasonable. This model allowed for mouse effects to be nested within patient effects so that the hierarchical structure is fully accounted for. Specifically, the following linear regression model was fitted: log(γiJt)=a1ijtimeijt+b2jtimeijt×trtij+βtime^2ijt+eijt where j indexes patient, i indexes mouse, and t indexes time; yijt is the percentage change in tumor volume (compared with day 0) in mouse i, which is a xenograft for patient j at time t; and trtij is treatment (1=treated, 0=control) received by mouse i, which is a xenograft for patient j. […] An intercept and main effect of treatment were not included in the model that makes two assumptions: (a) at time 0, the change from baseline is 0 (which is empirically true), and (b) at baseline, the treated and untreated curves intersect. The model was fit using Win-Bugs software that estimates models using a Markov chain Monte Carlo estimation procedure. A burn-in of 10,000 iterations was done, and then the chain was run for an additional 20,000 iterations, of which every 10th iteration was saved for inference. Several chains were run with different starting values to ensure convergence. No convergence issues arose. The fitted model was used to make inferences with respect to the treatment effect and to create fitted regression lines (rescaled on the Y-axis for clearer interpretation). Point estimates of variables of interest (e.g., expected difference in tumor volume between treated and control at 28 days) and 95% credible intervals were based on the mean of posterior distributions and the 2.5th and 97.5th quantiles of the posterior distribution, respectively. The comparisons between means and proportions obtained from the biological studies were done using Student's t-test and χ^2 method, respectively. ANOVA was used when three or more variables were compared.
Tumors from nine cases of pancreatic cancer were used to establish xenografts in nude mice, and the animals were treated with either vehicle, 6n, or 7d (FIG. 36A). The level of efficacy varied both between drugs and within cases treated with each drug. FIG. 37 provides an integrated summary of all data points obtained in the studies. […]

Each structure is given as a SMILES string. Where “and” joins values, the source holds several entries; their conditions need not be identical. Equal entries are not always repeated. Some results are limits rather than exact numbers.

With `O=C(NC(=O)c1ccccc1[N+](=O)[O-])Nc1ccc(Sc2ncc(Br)cn2)cc1` [Compound 6n, 1-[4-(5-Bromopyrimidin-2-ylsulfanyl)phenyl]-3-(2-nitrobenzoyl)-urea], the “colchicine binding (% ± SD), inhibition of [3H]colchicine binding” value with tubulin worked out at 17 ± 3%. In addition, the rate of apoptosis with MCF-7 cells (10 nM) was 29.7%. Besides, in the assay with MCF-7 cells (30 nM), the rate of apoptosis was 51.2%. In the assay with MCF-7 cells (100 nM), this molecule came in with a rate of apoptosis of 53.6%. For the same molecule, in assay [1] (50 mg/kg i.p. twice per week), the “proportion of sensitive cases, above the median MAPT expression” value is listed as 0 of 4; the “proportion of sensitive cases, below the median MAPT expression” value is 4 of 5; the “average growth after 28 days of treatment (T/C)” value is ≤ 50% and 60%. In addition, in assay [1], the “efficacy in case 194” value is “inactive”; the “slopes of treated versus control group, all nine cases” value is recorded as “no statistical differences”; the “efficacy in case 215” value was “particularly efficacious”. The “efficacy compared with docetaxel” value in assay [1] (direct comparison in three cases) is on record as “at least as efficacious (if not better) than docetaxel”. Further, in assay [1] (same patient-derived xenografts), the “efficacy compared with erlotinib” value was “superior to erlotinib”.
As for `Nc1ccccc1C(=O)NC(=O)Nc1ccc(Sc2ncc(Br)cn2)cc1` [Compound 7d], the “average growth after 28 days of treatment (T/C)” value in assay [1] (50 mg/kg i.p. twice per week) was 43% and 59%. In assay [1], the “efficacy in case 194” value was “inactive”; the “slopes of treated versus control group, all nine cases” value is “no statistical differences”; the “efficacy in case 215” value is “particularly efficacious”.
